From article PMC8041284, “Tunable Methacrylamides for Covalent Ligand Directed Release Chemistry” (Journal of the American Chemical Society, 2021)

These molecules were tested against BTK (Homo sapiens, UniProt Q06187) (assay: biochemical). Conditions: read-out: BTK inhibition (%).
Chain of BTK (Q06187 402-655 limits assumed): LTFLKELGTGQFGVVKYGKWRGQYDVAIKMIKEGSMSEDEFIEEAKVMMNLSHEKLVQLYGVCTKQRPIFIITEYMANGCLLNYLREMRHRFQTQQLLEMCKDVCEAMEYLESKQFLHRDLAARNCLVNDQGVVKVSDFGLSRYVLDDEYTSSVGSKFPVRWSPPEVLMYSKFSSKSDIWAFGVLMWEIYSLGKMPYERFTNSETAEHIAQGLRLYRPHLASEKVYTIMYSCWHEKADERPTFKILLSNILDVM

SMILES	inhibition at 10 µM [%]
CN1[C@@H]2CC[C@H]1CC(O)C2 (stereo partly shown) [PCM-0215128]	-7.8

Same assay, conditions: read-out: BTK inhibition (%), 0.75 uM BTK, […] probe 3l, 15 min preincubation

SMILES	inhibition at 10 µM [%]
C=C(C)[C@@H]1CC[C@]2(C)CC[C@]3(C)[C@H](CC[C@@H]4[C@@]5(C)CC[C@H](O)C(C)(C)[C@@H]5CC[C@]43C)[C@@H]12 [PCM-0215902]	-9.4
Clc1ccccc1CN1CCc2sccc2C1 [PCM-0085848]	-2.6
NCCS(=O)(=O)O [PCM-0064776]	-6
CC1CNC(=O)NC1=O (stereo not shown) [PCM-0214881]	-4.7
CC(C)=CCC/C(C)=C/CC/C(C)=C/CCC(=O)OC/C=C(\C)CCC=C(C)C [PCM-0216575]	7.7
COc1cc(F)c(C(C)C)cc1-c1ccc(C(F)(F)F)cc1CN1C(=O)O[C@H](c2cc(C(F)(F)F)cc(C(F)(F)F)c2)[C@@H]1C [PCM-0095486]	22.6
CCCCC(C)(O)C/C=C/[C@H]1[C@H](O)CC(=O)[C@@H]1CCCCCCC(=O)OC (stereo partly shown) [PCM-0215257]	-7.8
Nc1ncnc2c1c(-c1cccc(OCc3ccccc3)c1)cn2C1CC(CN2CCCC2)C1 (stereo not shown) [PCM-0095055]	13.2
CC[C@H]1OC(=O)C[C@@H](OC(C)=O)[C@H](C)[C@@H](O[C@@H]2O[C@H](C)[C@@H](O[C@H]3C[C@@](C)(O)[C@@H](OC(=O)CC(C)C)[C@H](C)O3)[C@H](N(C)C)[C@H]2O)[C@@H](CC=O)C[C@@H](C)C(=O)/C=C/C(C)=C/[C@@H]1CO[C@@H]1O[C@H](C)[C@@H](O)[C@@H](OC)[C@H]1OC [PCM-0216006]	-20.1
NC(=O)C1CCCc2c1[nH]c1ccc(Cl)cc21 (stereo not shown) [PCM-0095104]	-3.4
Cc1ccc2c(=O)c3cccc(CC(=O)O)c3oc2c1C [PCM-0095095]	-7.8
O=C(Nc1ccncc1)c1cc([N+](=O)[O-])ccc1Cl [PCM-0064887]	10.9
OCc1ccc(O)cc1 [PCM-0215041]	9.3
CN1c2cc(O)c(N=NC(N)=O)cc2CC1S(=O)(=O)O (stereo not shown) [PCM-0095446]	-10.9
CNC(=O)c1ccc(N2C(=S)N(c3cnc(C#N)c(C(F)(F)F)c3)C(=O)C23CCC3)cc1F [PCM-0095458]	-3.1
COc1ccc(CCO[C@@H]2O[C@H](CO[C@@H]3OC[C@H](O)[C@H](O)[C@H]3O)[C@@H](OC(=O)/C=C/c3ccc(O)c(OC)c3)[C@H](O[C@@H]3O[C@@H](C)[C@H](O)[C@@H](O)[C@H]3O)[C@H]2O)cc1O [PCM-0216311]	3.9
CC(=O)OCC(=O)[C@@]1(O)[C@H](C)C[C@H]2[C@@H]3CCC4=CC(=O)C=C[C@]4(C)[C@@]3(F)[C@@H](O)C[C@@]21C [PCM-0085852]	1.4
C/C(O)=C(\C#N)C(=O)Nc1cc(Br)ccc1Br [PCM-0215429]	-1.4
COc1ccc(CCNCc2ccc(OCc3ccc(Cl)nc3)c(OC)c2)cc1OC [PCM-0215426]	-27.6
COc1ccccc1OCCNCC(O)COc1cccc2[nH]c3ccccc3c12 (stereo not shown) [PCM-0065111]	-7.8
Nc1nccc(Oc2ccc3c(C(=O)Nc4cccc(C(F)(F)F)c4)cccc3c2)n1 [PCM-0215714]	-2.8
CN(C)c1ccc(C(=C2C=CC(=[N+](C)C)C=C2)c2ccc(N(C)C)cc2)cc1 [PCM-0090111]	116
CCOC(=O)[C@H](CCc1ccccc1)N[C@@H](C)C(=O)N1[C@H](C(=O)O)C[C@@H]2CCC[C@@H]21 [PCM-0086308]	-3.9
O=C1C2=C(CCN(Cc3ccccc3)C2)N2CCN=C2N1Cc1ccc(C(F)(F)F)cc1 [PCM-0215923]	2.3
C/C=C(/C)C(=O)O[C@H]1[C@@H](OC(=O)CC(C)C)c2c(ccc3ccc(=O)oc23)OC1(C)C [PCM-0216428]	7.7
COC(=O)C1=CO[C@@H](O[C@@H]2O[C@H](CO)[C@@H](O)[C@H](O)[C@H]2O)[C@@H]2[C@@H](C)CC(=O)[C@]12O [PCM-0216345]	-3.1
C[C@@H]1CC[C@H]2[C@@H](C)C(=O)O[C@@H]3O[C@@]4(C)CC[C@@H]1[C@]32OO4 [PCM-0214642]	8.6
